This is an account of results in patent US7598032B2, “Thermostable DNA polymerases incorporating nucleoside triphosphates labeled with fluorescent dyes” (Roche Molecular Systems, priority 1997, dated 2009).

Common to all, as to format: biochemical
The nature of assay [1]: standard PCR reaction with cyanine-labeled dNTPs. To be noted: compared with the wild-type enzyme. The text has this:
Although the examples provided herein use dideoxynucleotides labeled with fluorescein family dyes, the use of other unconventional nucleotides and fluorescent dyes is also within the scope of this invention. Other unconventional nucleotides include fluorescently-labled dNTPs, which can be used to label the products of DNA synthesis, and fluorescently-labled rNTPs, which can be used to label the primer extension products. Other dyes include other negatively charged fluorescent dyes, such as BODIPY, which are structurally and chemically similar to fluorescein. Other dyes also include cyanine dyes. Cyanine-labeled dNTPs were added to a standard PCR reaction which included a Taq DNA polymerase with the […] mutation (and a G46D mutation). […] Thus, in this aspect, a method of labeling DNA of the invention uses a native or mutant polymerase of the invention in combination with a nucleotide labeled with either a negatively charged fluorescent dye or a cyanine dye. In one embodiment, the DNA labeling method of the invention comprises: […]

Assay [2] relates to primer DG48 annealed to M13 mp18 template. Kind of assay: limiting template, primer extension competition assay (ddNTP incorporation assay). To be noted: ratio of concentrations for 50% inhibition by Zowie-ddCTP vs. ddCTP. Here is the method: The ability of the enzymes of this invention to efficiently incorporate nucleotides labeled with fluorescein family dyes is measured by ddNTP incorporation assays. One such assay is a primer extension competition assay conducted under conditions of limiting template. In this assay, a primer DG48 (5′-[…]), (SEQ ID NO: 11), bound to M13 mp18 template (Innis et al., 1988, Proc. Natl. Acad. Sci. USA 85:9436) is extended in the presence of [α-^33P]dCTP and excess enzyme with various levels of a fluorescently labeled ddNTP, Zowie-ddCTP. Because the incorporation of a ddCTP residue terminates the extension reaction, the more readily a DNA polymerase incorporates a ddCTP into an extended primer, the less [α-^33P]dCTP can be incorporated. Thus, as the efficiency of fluorescently labeled ddCTP incorporation increases, the extent of inhibition of DNA synthesis is increased. The reactions were also performed with various levels of an unlabeled ddCTP. […]
The relative abilities of G46D F667Y Taq, G46D F667Y E681K Taq and F730Y Tma30 DNA polymerases to incorporate a fluorescein dye family-labeled ddCTP were compared by use of a limiting template, primer extension competition assay. […] In this competition assay, because the incorporation of a ddCTP terminates the extension reaction, the more readily the polymerase incorporates a ddCTP into an extended primer, the less [α-^33P]dCTP can be incorporated. […]

For assay [3], the system named is primer annealed to an M13 template. Kind of assay: Extension rate assay. To be noted: 75° C. Here is the method:
The extension rate of G46D F667Y Taq and G46D F667Y E681K Taq were determined using an extension rate assay. In this experiment, the enzymes were used to extend a primer annealed to an M13 template in the presence of [α-^33P]dCTP. The extension reactions were denatured and the products analyzed by denaturing agarose gel electrophoresis.
The assay was performed as previously described (Lawyer et al., 1989, J. Biol. Chem. 264:6427) including the following modifications. The assay mixture was composed so the final concentration was 50 mM Bicine pH 8.3, 25° C., 2.5 mM MgCl2, 1 mM β-mercaptoethanol, 200 μM each of dATP, dGTP and dTTP (Perkin-Elmer), 100 μM dCTP (Perkin-Elmer) containing [α-^33P]dCTP (New England Nuclear, Boston, Mass.). M13 mp18 (Perkin-Elmer) was annealed to primer DG48, (SEQ ID NO: 11), and the equivalent of 0.085 pmoles of the annealed template was added to the assay mixture for each reaction. Forty-five μl of the assay mixture with template DNA was added to each of fourteen 0.5 ml eppendorf tubes. Each tube was preincubated at 75° C. for at least 30 seconds before the start of the polymerase reaction.
Polymerization was initiated in six of the fourteen assay tubes with 5 μl of G46D F667Y Taq DNA polymerase (2.5 units) or G46D F667Y E681K Taq DNA polymerase (1.25 units). Both enzymes were prepared as in Example I and the concentration used represents a predetermined excess amount of enzyme for the amount of substrate in the assay. As a control for the level of background, the remaining negative control was initiated with enzyme dilution buffer rather than polymerase. All reaction tubes were immediately vortexed briefly and incubated at 75° C. Two of the six tubes containing G46D F667Y Taq DNA polymerase were incubated 3 minutes, two for 6 minutes and two for 10 minutes. Similarly, two of the tubes started with G46D F667Y E681K Taq DNA polymerase were incubated for 30 seconds, two for 1 minute and two for 2 minutes. The control tubes were incubated for 3 minutes. The reactions were stopped by addition of 10 μl 60 mM EDTA and stored at 0° C.
For each reaction, a 25 μl aliquot of the 60 μl reaction was diluted with 1 ml 2 mM EDTA, 50 μg/ml sheared salmon sperm DNA as a carrier. The DNA was precipitated with TCA using standard procedures and collected on GF/C filter discs (Whatman). The amount of incorporated [α-^33P]dCMP was determined for each sample.
The remaining 35 μl of each duplicated were combined and the 70 μl sample was ethanol precipitated, dried and resuspended in 50 mM NaOH, 1 mM EDTA. Aliquots were removed from these samples such that an equal number of α-^33P] counts were taken from each. These aliquots were loaded on an 0.9% alkaline agarose gel, electrophoresed, dried and autoradiographed as previously described (Maniatis et al., 1982, In Molecular Cloning: A Laboratory Manual, Cold Spring Harbor Laboratory, Cold Spring Harbor, N.Y.) Bacteriophage lambda DNA cut with restriction enzyme HindIII (BRL) and 5′ end-labeled with [^32P] was used as a molecular weight standard.
The length in base pairs of the extension product in each sample was determined by comparison of the migration distance of each sample with the distance migrated by the lambda DNA size standard. The number of base pairs in each product was divided by the number of seconds each extension reaction incubated to give the extension rate as shown below.

Assay [4] can be described thus: screen of transformants for incorporation of [α-32P]Tet-dCTP. The conditions noted are these: in comparison to the wild-type enzyme. An excerpt: The C-terminal amino acid portion of Taq DNA polymerase encodes the polymerase active site domain (Lawyer et al., 1993, PCR Methods and Applications 2:275-287, Freemont et al., 1986, Proteins: Structure, Function and Genetics 1:66-73, which are incorporated herein by reference). A DNA fragment containing this region was isolated from the full-length Taq gene and mutagenized by PCR amplification in the presence of manganese (Leung et al, 1989, Technique 1(1):11-15). For this example, all restriction enzymes were purchased from New England Biolabs, Beverly Mass. The mutagenized fragments were digested with PstI and BglII and cloned into a Taq expression plasmid, pLK102, which had been digested with PstI and BglII. Plasmid pLK102 is a derivative of pLK101 in which the 900 bp PstI-BglII fragment is replaced by a short PstI-BglII linker. […]
The mutagenized Taq expression plasmid of mutant CS1 was digested with HindIII/NheI and the resulting restriction fragment was subcloned into the wild-type gene of pLK101, replacing the unmutagenized HindIII/NheI fragment, to determine which portion of the mutagenized Taq polymerase gene was responsible for the altered phenotype. […] Subsequent subclone analysis determined that the mutation was located in the 265 bp BamHI-NheI fragment.

On to “G46D E681K Taq: thermostable Taq DNA polymerase with G46D and E681K mutations, encoded by plasmid pLK112”, for which the “incorporation of cyanine-labeled dNTPs into amplification products” value in assay [1] was “higher than for the wild-type enzyme”.
As for “G46D F667Y Taq: Taq DNA polymerase having an F667Y mutation and a G46D mutation; known as AmpliTaq, FS [reference compound]”, the “Zowie-ddCTP/ddCTP (ratio of concentrations for 50% inhibition)” value in assay [2] came out at 25. In addition, the “extension rate, Base Pairs/Sec” value in assay [3] (Time 3 min.) was determined as 12.5 Base Pairs/Sec; in assay [3] (Time 6 min.) it was 12.2 Base Pairs/Sec; in assay [3] (Time 10 min.), 11.8 Base Pairs/Sec.
With “Mutant CS1: mutagenized Taq DNA polymerase clone (plasmid pCS1) carrying the E681K mutation”, the “ability to incorporate [α-32P]Tet-dCTP” value in assay [4] is reported as “more efficiently incorporate”.
